ChEMBL document CHEMBL5108051, “Improving the Antimicrobial Performance of Amphiphilic Cationic Antimicrobial Peptides Using Glutamic Acid Full-Scan and Positive Charge Compensation Strategies” (J Med Chem, 2022)
Activity calls are given as the source filed them. The rule behind the calls is not given here. Bridge positions count the residues as written; N and C are the ends. Square brackets hold non-standard residues; d marks the D form. Peptide text beside a SMILES is read from it. * marks the point of attachment. X1 = CC[C@H](C)CCCCC(=O)*; Dab = NCC[C@H](N)C(=O)O

Key:
[1] = test system: Escherichia coli; experiment: Antibacterial activity against gentamicin resistant Escherichia coli ATCC 25922 assessed as fractional inhibitory concentration index in presence of polymyxin B by checkerboard assay; type: functional
[2] = test system: Escherichia coli; experiment: Antimicrobial activity against Escherichia coli ATCC 25922 in presence of NaCl; type: functional, organism-based
[3] = test system: Staphylococcus aureus; experiment: Antibacterial activity against Staphylococcus aureus ATCC 25923 assessed as fractional inhibitory concentration index in presence of polymyxin B by checkerboard assay; type: functional
[4] = test system: Staphylococcus aureus; experiment: Antibacterial activity against Staphylococcus aureus ATCC 25923 assessed as inhibition of gentamicin resistance development measured after 15 passages in presence of gentamicin by resistance development assay; type: functional, organism-based
[5] = Acute toxicity in BALB/c mouse assessed as rough hairs at 40 to 80 mg/kg, ip administered as single dose measured for 7 days; type: organism-based; details: in vivo, 168 h, dose 40-80 mg/kg, time 7 day
[6] = Stability of compound in serum measured after 1 to 6 hrs by RP-HPLC analysis; type: ADME, cell-free; details: time 1-6 hrs
[7] = test system: Cell membrane; experiment: Induction of cytoplasmic membrane depolarization in Staphylococcus aureus ATCC 25923 assessed as increase in fluorescence intensity at 1 to 4 times MIC measured within 1 min by DiSC3-5 dye based fluorescence method; type: subcellular; details: DDE = dose-dependent effect
[8] = test system: Escherichia coli; experiment: Antibacterial activity against Escherichia coli ATCC 25922 assessed as fractional inhibitory concentration index in presence of vancomycin by checkerboard assay; type: functional
[9] = Acute toxicity in BALB/c mouse assessed as pathological changes in kidney at 20 to 80 mg/kg, ip administered as single dose measured for 7 days by H and E staining method; type: organism-based; details: in vivo, 168 h, dose 20-80 mg/kg, time 7 day
[10] = test system: Cell membrane; experiment: Induction of outer membrane permeabilization to NPN in Escherichia coli ATCC 25922 cells assessed as increase in fluorescence intensity by NPN fluorescent dye based microplate reader assay; type: subcellular
[11] = test system: Escherichia coli; experiment: Antibacterial activity against Escherichia coli ATCC 25922 assessed as fractional inhibitory concentration index in presence of polymyxin B by checkerboard assay; type: functional
[12] = test system: Staphylococcus aureus; experiment: Antibacterial activity against gentamicin resistant Staphylococcus aureus ATCC 25923 assessed as fractional inhibitory concentration index in presence of polymyxin B by checkerboard assay; type: functional
[13] = Acute toxicity in BALB/c mouse assessed as mortality at 40 mg/kg, ip administered as single dose measured for 7 days; type: organism-based; details: in vivo, time 7 day, read-out: Activity
[14] = Stability of the compound in mouse serum at 10 mM assessed as half life by RP-HPLC analysis; type: ADME, cell-free
[15] = test system: Staphylococcus aureus; experiment: Antibacterial activity against gentamicin resistant Staphylococcus aureus ATCC 25923 assessed as fractional inhibitory concentration index in presence of rifampin by checkerboard assay; type: functional
[16] = test system: Erythrocyte; experiment: Hemolytic activity against mouse RBC measured after 1 hrs; type: toxicity, cell-based
[17] = test system: Cell membrane; experiment: Induction of cell membrane disruption in Staphylococcus aureus ATCC 25923 assessed as cell morphological damage measured after 30 mins by […] electron microscope analysis; type: subcellular
[18] = Acute toxicity in BALB/c mouse assessed as decrease in motility at 40 to 80 mg/kg, ip administered as single dose measured for 7 days; type: organism-based; details: in vivo, 168 h, dose 40-80 mg/kg, time 7 day
[19] = test system: Escherichia coli; experiment: Antibacterial activity against Escherichia coli ATCC 25922 assessed as inhibition of rifampin resistance development measured after 15 passages in presence of rifampin by resistance development assay; type: functional, organism-based
[20] = test system: Escherichia coli; experiment: Antibacterial activity against rifampin resistant Escherichia coli ATCC 25922 assessed as fractional inhibitory concentration index in presence of vancomycin by checkerboard assay; type: functional
[21] = Acute toxicity in BALB/c mouse assessed as abdominal twitching at 40 to 80 mg/kg, ip administered as single dose measured for 7 days; type: organism-based; details: in vivo, 168 h, dose 40-80 mg/kg, time 7 day
[22] = test system: Escherichia coli; experiment: Antibacterial activity against rifampin resistant Escherichia coli ATCC 25922 assessed as fractional inhibitory concentration index in presence of polymyxin B by checkerboard assay; type: functional
[23] = test system: Staphylococcus aureus; experiment: Antibiofilm activity against Staphylococcus aureus ATCC 25923 assessed as inhibition of biofilm formation measured at 0.5 to 4 times MIC after 24 hrs by crystal violet staining based assay; type: functional, organism-based; details: DDE = dose-dependent effect
[24] = test system: Staphylococcus aureus; experiment: Antibacterial activity against rifampin resistant Staphylococcus aureus ATCC 25923 assessed as fractional inhibitory concentration index in presence of polymyxin B by checkerboard assay; type: functional
[25] = test system: Staphylococcus aureus; experiment: Antimicrobial activity against Staphylococcus aureus ATCC 25923 in presence of FeCl3; type: functional, organism-based
[26] = test system: Escherichia coli; experiment: Antibacterial activity against Escherichia coli ATCC 25922 assessed as resistance development measured after 15 passages at sub-MIC concentration by resistance development assay; type: functional, organism-based
[27] = test system: Staphylococcus aureus; experiment: Antibacterial activity against Staphylococcus aureus ATCC 25923 infected in BALB/C mouse pulmonary infection model assessed as increase in bacterial killing in lung at 10 mg/kg, ip after 24 hrs by H and E staining method; type: functional, organism-based
[28] = test system: Staphylococcus aureus; experiment: Antibacterial activity against gentamicin resistant Staphylococcus aureus ATCC 25923 assessed as fractional inhibitory concentration index in presence of gentamicin by checkerboard assay; type: functional
[29] = Cytotoxicity against human Glomerular mesenchymal cell assessed as reduction in cell viability at 0 to 128 uM incubated for 1 hr by Resazurin cell viability kit; type: toxicity, cell-based; details: glomerular mesenchymal cells, dose 0-128 µM
[30] = test system: Escherichia coli; experiment: Antimicrobial activity against Escherichia coli ATCC 25922 in presence of KCl; type: functional, organism-based
[31] = test system: Staphylococcus aureus; experiment: Antimicrobial activity against Staphylococcus aureus ATCC 25923 assessed as fold increase in MIC in presence of NaCl; type: functional
[32] = test system: Escherichia coli; experiment: Antibiofilm activity against Escherichia coli ATCC 25922 assessed as inhibition of biofilm formation at 1 times MIC measured after 24 hrs by crystal violet staining based assay; type: functional, organism-based
[33] = test system: Escherichia coli; experiment: Bactericidal activity against Escherichia coli ATCC 25922 at 1 times MIC measured after 1 hr by time-killing kinetics assay; type: functional
[34] = Acute toxicity in BALB/c mouse assessed as hyper-mobility at 10 to 20 mg/kg, ip administered as single dose measured for 7 days; type: organism-based; details: in vivo, 168 h, dose 10-20 mg/kg, time 7 day
[35] = test system: Escherichia coli; experiment: Antibiofilm activity against Escherichia coli ATCC 25922 assessed as inhibition of biofilm formation at 0.5 times MIC measured after 24 hrs by crystal violet staining based assay; type: functional, organism-based
[36] = test system: Staphylococcus aureus; experiment: Antibacterial activity against Staphylococcus aureus ATCC 25923 assessed as fractional inhibitory concentration index in presence of rifampin by checkerboard assay; type: functional
[37] = test system: Staphylococcus aureus; experiment: Antibacterial activity against gentamicin resistant Staphylococcus aureus ATCC 25923 assessed as fractional inhibitory concentration index in presence of vancomycin by checkerboard assay; type: functional
[38] = Acute toxicity in BALB/c mouse assessed as pathological changes in liver at 10 to 40 mg/kg, ip administered as single dose measured for 7 days by H and E staining method; type: organism-based; details: in vivo, 168 h, dose 10-40 mg/kg, time 7 day
[39] = test system: Staphylococcus aureus; experiment: Antimicrobial activity against Staphylococcus aureus ATCC 25923 assessed as fold increase in MIC in presence of MgCl2; type: functional
[40] = test system: Escherichia coli; experiment: Bactericidal activity against Escherichia coli ATCC 25922 at 1 times MIC measured after 6 hrs by time-killing kinetics assay; type: functional

Row | Compound | fractional inhibitory concentration index (FICI) [1] | Activity [2] | fractional inhibitory concentration index (FICI) [3] | Activity [5] | Stability [6] | Activity [7] | fractional inhibitory concentration index (FICI) [8] | Activity [10] | fractional inhibitory concentration index (FICI) [11] | fractional inhibitory concentration index (FICI) [12] | mortality at 168 h [13] | half-life at 10000 µM [14] | fractional inhibitory concentration index (FICI) [15] | MHC10 [16] | Activity [17] | Activity [18] | fractional inhibitory concentration index (FICI) [20] | Activity [21] | Activity [26] | fractional inhibitory concentration index (FICI) [28] | also measured
1 | CC(C)C[C@H](NC(=O)[C@H](CC(C)C)NC(=O)[C@H](CCC(=O)O)NC(=O)[C@H](CCCCN)NC(=O)[C@H](CC(C)C)NC(=O)[C@H](CC(C)C)NC(=O)[C@H](CCCCN)NC(=O)[C@H](C)NC(=O)[C@@H](NC(=O)[C@H](CCCCN)NC(=O)[C@@H]1CCCN1C(=O)[C@H](CC(C)C)NC(=O)[C@@H](N)Cc1ccccc1)C(C)C)C(N)=O (H-FLPKVAKLLKELL-NH2) | 0.75 | Active | 0.75 | Toxic | Stable | Dde | 0.375 | Active | 0.375 | 0.75 | 20% | 9.64 h | 0.625 | 202 µM | Active | Toxic | 0.825 | Toxic | Active | 0.75 | Activity [4]: Active; Activity [9]: Non-Toxic; Activity [19]: Active; fractional inhibitory concentration index (FICI) [22]: 0.25; Activity [23]: Dde; fractional inhibitory concentration index (FICI) [24]: 0.5; Activity [25]: Active; Activity [27]: Active; CC50 at 1 h [29]: > 128 µM; Activity [30]: Active
2 | CC[C@H](C)CCCCC(=O)N[C@@H](CCN)C(=O)N[C@H](C(=O)N[C@@H](CCN)C(=O)N[C@H]1CCNC(=O)[C@H]([C@@H](C)O)NC(=O)[C@H](CCN)NC(=O)[C@H](CCN)NC(=O)[C@H](CC(C)C)NC(=O)[C@@H](Cc2ccccc2)NC(=O)[C@H](CCN)NC1=O)[C@@H](C)O (X1-[Dab]T[Dab][Dab][Dab][dF]L[Dab][Dab]T; lactam 4-C) |  | Active |  |  | Stable |  | 0.375 | Active |  |  |  | 12.5 h | 0.5625 | > 256 µM |  |  |  |  | Active | 0.5 | fold change (FC) [31]: 4; Activity [32]: Active; Activity [33]: 100%; Activity [34]: Toxic; Activity [35]: Active; fractional inhibitory concentration index (FICI) [36]: 2; fractional inhibitory concentration index (FICI) [37]: 1; Activity [38]: Non-Toxic; fold change (FC) [39]: 2; Activity [30]: Active
3 | CC[C@H](C)[C@H](NC(=O)[C@@H]1CCCN1C(=O)[C@H](CC(C)C)NC(=O)[C@@H](N)Cc1ccccc1)C(=O)N[C@H](C(=O)N[C@@H](C)C(=O)N[C@@H](CCCCN)C(=O)N[C@@H](CC(C)C)C(=O)N[C@@H](CC(C)C)C(=O)N[C@@H](CO)C(=O)NCC(=O)N[C@@H](CC(C)C)C(=O)N[C@@H](CC(C)C)C(N)=O)C(C)C (H-FLPIVAKLLSGLL-NH2) | 0.75 |  | 0.75 | Toxic |  | Dde | 0.625 | Active | 0.625 | 0.625 | 40% | 5.55 h | 0.75 | 12.53 µM | Active | Toxic | 0.25 | Toxic | Active | 0.75 | fold change (FC) [31]: 2; Activity [32]: Active; Activity [35]: Active; fractional inhibitory concentration index (FICI) [22]: 0.25; fractional inhibitory concentration index (FICI) [36]: 0.75; Activity [40]: 100%; Activity [23]: Dde; fractional inhibitory concentration index (FICI) [24]: 0.5; fractional inhibitory concentration index (FICI) [37]: 0.625; fold change (FC) [39]: 2; CC50 at 1 h [29]: 35.9 µM
